Measurements reported in patent US6121244A, “Antitumoral method by administration of partricin derivatives” (Prospa B.V., priority 1997, dated 2000).
“Also recorded” adds a separate entry of the source. Like-named read-outs stand apart in the source and are kept apart here.

How the values were obtained:
erythrocytes = details: cited from earlier work; for total hemolytic conc. (THC): erythrocytes
[1] = test system: carcino-embryonic antigen (CEA); assay: Carcino-embryonic antigen (CEA) in a patient under chemotherapy, CEA-RIA; assay type: in vivo, human (patient)
[2] = test system: murine WEHI-3B (D+) myelomonocytic leukemia cells; assay: Cytotoxicity by MTT microtiter test; assay type: cell-based; details: for dose dependence of toxic effect: linear regression
Description: A) Microtiter test (MTT) (Pessina et al. "In vitro short-term and long-term cytotoxicity of fluoroquinones on murine cell line", Ind. J.
The cultures were incubated for 7 days at 37° C. in air+5% CO2 and finally 20 μl of MTT at a conc. of 5 mg/ml in PBS were added to each well. After 3-h incubation at 37° C. the cultures were destroyed with 100 μl of a lytic buffer prepared with sodium dodecylsulfate/dimethylforma-mide/acetic acid/HCl. After further overnight incubation, the optical density (OD) at 620 nm was determined with a microplate LP200 detector. The O.D. of the wells with no cells was considered as 0% proliferation. The O.D. of the wells with growing cells in drug-free medium was considered as 100% proliferation.

[3] = test system: thyroid medullary carcinoma (TMC) cells; assay: Cytotoxicity test (MTT) of cisplatin after pre-treatment with SPA-S-843; assay type: cell-based
Water solubility = assay type: physicochemical; details: as salts, in particular diascorbate
[4] = test system: murine WEHI-3B (D+) myelomonocytic leukemia cells; details: clonogenic test; amphotericin B vs SPA-S-843; FIG. 4
Description: Substances: SPA-S-843 and amphotericin B were dissolved in sterile bidistilled water to a concentration of 2000 μg/ml. The working solutions were prepared in McCoy medium supplemented with penicillin+streptomycin (100 U/ml +100 μg/ml) at the concentrations of from 200 μg/ml to 1.56 μg/ml by subsequent serial 1:2 dilutions.
The murine WEHI-3B (D+) myelomonocytic leukemia cells were maintained through subcultures in 25-cm^2 plastic bottles in McCoy medium (Seromed, Germany) containing 5% FCS (Gibco, USA).
Cell sensitivity to the toxic action of SPA-S-843 in comparison with that of amphotericin B, taken as reference substance, was determined by two different methods:
Acta, 1013, 206-11, 1989).
The clonogenic capacity of WEHI-3B(D+) cells was tested by culturing 300 cells in 0.3 ml of complete enriched medium [McCoy +10% FCS, 10 mM sodium pyruvate, 4% NEAA (10×), 4% Mem Vit (100×)]+0.3% agar in 35 mm Petri plates.
SPA-S-843 and amphotericin B (100 μl) had previously been added to the Petri plates at serial concentrations of from 25 to 0.19 μg/ml. The control plates contained 100 μl of culture medium. The colonies were counted after 7 days of incubation at 37° C. in an atmosphere of air+5% CO2.

[5] = mice, i.v.; cited from earlier work

| Compound | total hemolytic conc. (THC) (erythrocytes) [µg/mL] | CEA after phase B ([1]; SPA-S-843 50 mg i.v. combined with 5-fluorouracil (500 mg) and folinic acid (250 mg), 3 weeks later) [ng/mL] | sensitivity to usual chemotherapeutic agents in combination with the polyene ([1]; combination with SPA-S-843, one patient) | cytotoxicity on WEHI-3B(D+) cells, compared with amphotericin B ([2]; 7 days, FIG. 1) | dose dependence of toxic effect ([2]; FIG. 1) | IC10 ([2]; vs amphotericin B, FIG. 2) | IC50 ([2]; vs amphotericin B, FIG. 2) | IC90 ([2]; vs amphotericin B, FIG. 2) | potentiation of cisplatin cytotoxicity ([3]; incubation with SPA-S-843 (2 μg/ml)) | effect on resistance of TMC cells to cisplatin ([3]; pre-treatment with SPA-S-843 (2 μg/ml)) | concentration at which lytic activity on erythrocytes appears (erythrocytes; of the order of) [µg/mL] | water solubility (Water solubility) | IC10 [4] | IC50 [4] | IC90 [4] | LD50 [5] [mg/kg] |
| --- | --- | --- | --- | --- | --- | --- | --- | --- | --- | --- | --- | --- | --- | --- | --- | --- |
| CNc1ccc(C(=O)CC(O)CCC(C)C2OC(=O)CC(O)CC(=O)CC(O)CC(O)CC(O)CC(O)CC3(O)CC(O)C(C(=O)NCCN(C)C)C(CC(OC4OC(C)C(O)C(NC(=O)CN(C)C)C4O)C=CC=CC=CC=CC=CC=CC=CC2C)O3)cc1 (stereo not drawn) [SPA-S-843 free base, N-dimethylamino-acetyl-partricin A 2-dimethylaminoethylamide] | > 18 | – | – | – | – | – | – | – | – | – | – | – | – | – | – | – |
| CNc1ccc(C(=O)CC(O)CCC(C)C2OC(=O)CC(O)CC(=O)CC(O)CC(O)CC(O)CC(O)CC3(O)CC(O)C(C(=O)NCCN(C)C)C(CC(OC4OC(C)C(O)C(NC(=O)CN(C)C)C4O)C=CC=CC=CC=CC=CC=CC=CC2C)O3)cc1 (stereo not drawn) [SPA-S-843, N-dimethylamino-acetyl-partricin A 2-dimethylaminoethylamide] | – | 65 | re-established the sensitivity | substantially higher; also recorded: more sensitive to SPA-S-843 than to amphotericin B | dose-related kinetics | significantly lower | significantly lower | significantly lower | able to potentiate cisplatin cytotoxicity against resistant cells up to the level of naturally sensitive cells; also recorded: cytotoxic for all TMC cells | substantially counteracted | ≥ 18 | water soluble | – | – | – | – |
| C[C@@H]1[C@H](O)[C@@H](C)/C=C/C=C/C=C/C=C/C=C/C=C/C=C/[C@H](O[C@@H]2O[C@H](C)[C@@H](O)[C@H](N)[C@@H]2O)C[C@@H]2O[C@](O)(C[C@@H](O)C[C@@H](O)[C@H](O)CC[C@@H](O)C[C@@H](O)CC(=O)O[C@H]1C)C[C@H](O)[C@H]2C(=O)O [amphotericin B] | 2 | – | – | – | dose-related kinetics | – | – | – | – | – | – | – | significantly higher | significantly higher | significantly higher | 4.77 |
